Reference: the OligoGym collection
Only the 19 paired bases of each siRNA are shown; overhangs and chemistry are not given here.
Further: test concentration or dose not given here.

The substances below were run against PTEN (assay: five studies, different assays). Conditions: siRNA.
“sense AGUGAAUCUGUAUUGGGGU / antisense ACCCCAAUACAGAUUCACU” was tested, and the target inhibition was 39%. “sense GGUCCCGUCCGCCUCUCGC / antisense GCGAGAGGCGGACGGGACC” was tested, and the target inhibition was 0%. “sense GCACAUCCAGGGACCCGGG / antisense CCCGGGUCCCUGGAUGUGC” showed a target inhibition of 32%. Substance “sense GAGGCAGCCGUUCGGAGGA / antisense UCCUCCGAACGGCUGCCUC” has a target inhibition of 58%. With “sense CAGUCAGAGGCGCUAUGUG / antisense CACAUAGCGCCUCUGACUG” the target inhibition was 73%. Work on “sense AUACAGGAACAAUAUUGAU / antisense AUCAAUAUUGUUCCUGUAU” yielded a target inhibition of 49%. “sense UUACCAGUUAUAGGAACAA / antisense UUGUUCCUAUAACUGGUAA” gave a target inhibition of 40%. For “sense AAGAAACACAGCAACAAUG / antisense CAUUGUUGCUGUGUUUCUU”, the target inhibition was 30%. “sense UUUCCAUCCUGCAGAAGAA / antisense UUCUUCUGCAGGAUGGAAA” gave a target inhibition of 27%. For “sense GCGGCGGCGGCACCUCCCG / antisense CGGGAGGUGCCGCCGCCGC”, the target inhibition was 20%. Substance “sense CACUGACUCUGAUCCAGAG / antisense CUCUGGAUCAGAGUCAGUG” has a target inhibition of 15%. “sense UUCCGAAAGGUUUUGCUAC / antisense GUAGCAAAACCUUUCGGAA” showed a target inhibition of 32%. Substance “sense CUUCCUCGGCUUCUCCUGA / antisense UCAGGAGAAGCCGAGGAAG” has a target inhibition of 62%. “sense CAAAUCCAGAGGCUAGCAG / antisense CUGCUAGCCUCUGGAUUUG” showed a target inhibition of 44%. Work on “sense AAGUAAGGACCAGAGACAA / antisense UUGUCUCUGGUCCUUACUU” yielded a target inhibition of 75%. Substance “sense AUAAAGACAAAGCCAACCG / antisense CGGUUGGCUUUGUCUUUAU” has a target inhibition of 0%. In the case of “sense UUCCCGUUUUAUUCCAGUU / antisense AACUGGAAUAAAACGGGAA”, the target inhibition was 38%. For “sense GGGUAAAUACAUUCUUCAU / antisense AUGAAGAAUGUAUUUACCC”, the target inhibition was 70%. “sense AAAGGUGAAGAUAUAUUCC / antisense GGAAUAUAUCUUCACCUUU” gave a target inhibition of 9%. “sense CUCUGGCUGCUGAGGAGAA / antisense UUCUCCUCAGCAGCCAGAG” gave a target inhibition of 52%. “sense CUUGACCUAUAUUUAUCCA / antisense UGGAUAAAUAUAGGUCAAG” showed a target inhibition of 48%. “sense GCUACAGUUAUUAAUCUGG / antisense CCAGAUUAAUAACUGUAGC” showed a target inhibition of 37%. Substance “sense UCCACAGGGUUUUGACACU / antisense AGUGUCAAAACCCUGUGGA” has a target inhibition of 45%. Work on “sense UCUGUCACCAACUGAAGUG / antisense CACUUCAGUUGGUGACAGA” yielded a target inhibition of 25%. “sense GGUCUUCCGAGGCGCCCGG / antisense CCGGGCGCCUCGGAAGACC” showed a target inhibition of 0%. “sense UCAAAGUAGAGUUCUUCCA / antisense UGGAAGAACUCUACUUUGA” was tested, and the target inhibition was 30%. Substance “sense AAGAAUGGGCUUGAAACAU / antisense AUGUUUCAAGCCCAUUCUU” has a target inhibition of 40%. With “sense CCUGUGAGCAGCCGCGGGG / antisense CCCCGCGGCUGCUCACAGG” the target inhibition was 25%. With “sense GGGACGAACUGGUGUAAUG / antisense CAUUACACCAGUUCGUCCC” the target inhibition was 75%. With “sense GCGGUCCAGAGCCAAGCGG / antisense CCGCUUGGCUCUGGACCGC” the target inhibition was 31%. Work on “sense ACCAUCUCCAGCUAUUUAC / antisense GUAAAUAGCUGGAGAUGGU” yielded a target inhibition of 6%. “sense UAAAACACCAUGAAAAUAA / antisense UUAUUUUCAUGGUGUUUUA” gave a target inhibition of 58%. “sense UCUCGGAAGCUGCAGCCAU / antisense AUGGCUGCAGCUUCCGAGA” showed a target inhibition of 40%. Substance “sense CUCAGAAAGGAAAUAAUUU / antisense AAAUUAUUUCCUUUCUGAG” has a target inhibition of 30%. For “sense UGACACCGCCAAAUUUAAU / antisense AUUAAAUUUGGCGGUGUCA”, the target inhibition was 65%. “sense CCUUUUGUGAAGAUCUUGA / antisense UCAAGAUCUUCACAAAAGG” showed a target inhibition of 73%.

What follows are substances tested against ICAM1 (assay: five studies, different assays). Conditions: siRNA.
“sense GGUCUCUGGCCUCACGGAG / antisense CUCCGUGAGGCCAGAGACC” gave a target inhibition of 7%. “sense CUCAGCGGUCAUGUCUGGA / antisense UCCAGACAUGACCGCUGAG” was tested, and the target inhibition was 33%. Substance “sense ACGGUGCUGGUGAGGAGAG / antisense CUCUCCUCACCAGCACCGU” has a target inhibition of -20%. “sense AGUCGACGCUGAGCUCCUC / antisense GAGGAGCUCAGCGUCGACU” was tested, and the target inhibition was 0%. For “sense GGGCAUUGUCCUCAGUCAG / antisense CUGACUGAGGACAAUGCCC”, the target inhibition was 62%. With “sense ACCUCUGUCGGGCCAGGAG / antisense CUCCUGGCCCGACAGAGGU” the target inhibition was 5%. In the case of “sense UAUUGGGUAUGCUGAGGCC / antisense GGCCUCAGCAUACCCAAUA”, the target inhibition was 43%. Substance “sense UGUGUGUGUGUGUAUGUGU / antisense ACACAUACACACACACACA” has a target inhibition of 7%. With “sense UCAGAGUUGCAACCUCAGC / antisense GCUGAGGUUGCAACUCUGA” the target inhibition was 1%.

These substances were tested against placental-type alkaline phosphatase (assay: five studies, different assays). Conditions: siRNA.
“sense GCCAAGAACCUCAUCAUCU / antisense AGAUGAUGAGGUUCUUGGC” was tested, and the target inhibition was 90.8%. Substance “sense GAGUGCAGCACGCCUCGCC / antisense GGCGAGGCGUGCUGCACUC” has a target inhibition of -5%. With “sense UCUGGUGCAGGAAUGGCUG / antisense CAGCCAUUCCUGCACCAGA” the target inhibition was 30%. “sense AGUACCCAGAUGACUACAG / antisense CUGUAGUCAUCUGGGUACU” showed a target inhibition of 1.85%. In the case of “sense CGGCGCCCGGCCGGAUGUU / antisense AACAUCCGGCCGGGCGCCG”, the target inhibition was 60%. “sense AGGAGAACCCGGACUUCUG / antisense CAGAAGUCCGGGUUCUCCU” showed a target inhibition of 81%. “sense CUACACGGUCCUCCUAUAC / antisense GUAUAGGAGGACCGUGUAG” showed a target inhibition of 21.2%. “sense CUUCAUAGCGCACGUCAUG / antisense CAUGACGUGCGCUAUGAAG” was tested, and the target inhibition was 16.5%. In the case of “sense GACUGAGACGAUCAUGUUC / antisense GAACAUGAUCGUCUCAGUC”, the target inhibition was 85%. Work on “sense GAAACGGUCCAGGCUAUGU / antisense ACAUAGCCUGGACCGUUUC” yielded a target inhibition of 5.96%. For “sense CAAACAUGUGCCAGACAGU / antisense ACUGUCUGGCACAUGUUUG”, the target inhibition was 88%. “sense CGGAAACGGUCCAGGCUAU / antisense AUAGCCUGGACCGUUUCCG” was tested, and the target inhibition was 80.2%. Substance “sense GGGCGGGCCAGCUCACCAG / antisense CUGGUGAGCUGGCCCGCCC” has a target inhibition of 20%. “sense CUUUGAGCCUGGAGACAUG / antisense CAUGUCUCCAGGCUCAAAG” was tested, and the target inhibition was 79%. With “sense CACUGCCGACCACUCCCAC / antisense GUGGGAGUGGUCGGCAGUG” the target inhibition was -10%. “sense CCUACACGGUCCUCCUAUA / antisense UAUAGGAGGACCGUGUAGG” showed a target inhibition of 62.4%. For “sense ACCUCAUCAUCUUCCUGGG / antisense CCCAGGAAGAUGAUGAGGU”, the target inhibition was 49%. Substance “sense UGUUCGACGACGCCAUUGA / antisense UCAAUGGCGUCGUCGAACA” has a target inhibition of 74%. “sense ACAGACAGCCGCCAAGAAC / antisense GUUCUUGGCGGCUGUCUGU” was tested, and the target inhibition was 54.7%. In the case of “sense CGGAUGUUACCGAGAGCGA / antisense UCGCUCUCGGUAACAUCCG”, the target inhibition was 32%. Work on “sense GAAUCUGGUGCAGGAAUGG / antisense CCAUUCCUGCACCAGAUUC” yielded a target inhibition of 56.5%.

What follows are substances tested against Renilla luciferase (assay: five studies, different assays). Conditions: siRNA.
In the case of “sense UCUUACUGCAUGGUUUGAA / antisense UUCAAACCAUGCAGUAAGA”, the target inhibition was 52.3%. “sense GCCAAGAAGUUUCCUAAUA / antisense UAUUAGGAAACUUCUUGGC” gave a target inhibition of 72.2%.

The substances below were run against GAPDH (assay: five studies, different assays). Conditions: siRNA.
“sense ACCAUGAGAAGUAUGACAA / antisense UUGUCAUACUUCUCAUGGU” showed a target inhibition of 92.5%. Work on “sense UGGCCAAGGUCAUCCAUGA / antisense UCAUGGAUGACCUUGGCCA” yielded a target inhibition of 91.5%. With “sense GGAGCCAAAAGGGUCAUCA / antisense UGAUGACCCUUUUGGCUCC” the target inhibition was 88.7%. Work on “sense UGUUCGUCAUGGGUGUGAA / antisense UUCACACCCAUGACGAACA” yielded a target inhibition of 80.3%. In the case of “sense CCCCUGGCCAAGGUCAUCC / antisense GGAUGACCUUGGCCAGGGG”, the target inhibition was -2.51%. Work on “sense CCAAAAGGGUCAUCAUCUC / antisense GAGAUGAUGACCCUUUUGG” yielded a target inhibition of 93.9%. With “sense UCAUGGGUGUGAACCAUGA / antisense UCAUGGUUCACACCCAUGA” the target inhibition was 60.5%. “sense GAUCAUCAGCAAUGCCUCC / antisense GGAGGCAUUGCUGAUGAUC” was tested, and the target inhibition was 70.8%. Substance “sense UGCUGAUGCCCCCAUGUUC / antisense GAACAUGGGGGCAUCAGCA” has a target inhibition of 12.7%. “sense AUGACAACAGCCUCAAGAU / antisense AUCUUGAGGCUGUUGUCAU” showed a target inhibition of 58.3%. “sense GUGUGAACCAUGAGAAGUA / antisense UACUUCUCAUGGUUCACAC” gave a target inhibition of 92.7%. Substance “sense GCACCACCAACUGCUUAGC / antisense GCUAAGCAGUUGGUGGUGC” has a target inhibition of 38.6%. “sense GUAUGACAACAGCCUCAAG / antisense CUUGAGGCUGUUGUCAUAC” showed a target inhibition of 77.6%. “sense UGACAACUUUGGUAUCGUG / antisense CACGAUACCAAAGUUGUCA” was tested, and the target inhibition was 43%. Substance “sense AAGUAUGACAACAGCCUCA / antisense UGAGGCUGUUGUCAUACUU” has a target inhibition of 94.2%. Work on “sense AAGGACUCAUGACCACAGU / antisense ACUGUGGUCAUGAGUCCUU” yielded a target inhibition of -17.4%. For “sense GACAACAGCCUCAAGAUCA / antisense UGAUCUUGAGGCUGUUGUC”, the target inhibition was 94.2%. “sense GUCAUCAUCUCUGCCCCCU / antisense AGGGGGCAGAGAUGAUGAC” gave a target inhibition of 69.8%. In the case of “sense CAUGAGAAGUAUGACAACA / antisense UGUUGUCAUACUUCUCAUG”, the target inhibition was 92.4%. For “sense CAGGGGGGAGCCAAAAGGG / antisense CCCUUUUGGCUCCCCCCUG”, the target inhibition was -24.4%.
